Source: the supplement of paper PMC10307832

Each cell line was assayed with C[C@@]1(C(=O)Nc2ccc(F)nc2)CCCN1c1nc(Nc2cc(C3CC3)n[nH]2)c2cccn2n1 + CS(=O)(=O)CCNCc1ccc(-c2ccc3ncnc(Nc4ccc(OCc5cccc(F)c5)c(Cl)c4)c3c2)o1 [Lapatinib] (partner 2 µM) (assay: relative viability (nuclei count vs DMSO), 5 days (fraction); higher = more cells survive). Details: first compound 0.04 µM.
In short: (§1)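 Five library-drug doses in √10 steps were combined with a fixed anchor-drug dose, or a single drug was given alone, by pin tool to lung cancer cell lines in 1536-well plates the day after seeding. Nuclei were stained and counted after 5 days. Relative viability is the nuclei count in treated wells over that in vehicle wells, taken as the median of duplicate plates.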

| Cell Line | relative viability |
| --- | --- |
| Calu-6 | 1.14 |
| HCC-366 | 1.22 |
| NCI-H1666 | 0.455 |
| NCI-H596 | 1.04 |
| NCI-H2087 | 1.09 |
| SK-MES-1 | 0.477 |
| H3255 | 0.243 |
| COR-L23 | 1.12 |
| COR-L 105 | 0.344 |
| IA-LM | 0.702 |
| LOU-NH91 | 0.671 |
| NCI-H2170 | 0.245 |
| NCI-H2405 | 0.762 |
| HOP-62 | 0.978 |
| HCC-44 | 0.894 |
| A549 | 0.648 |
| LU99A | 0.808 |

| Cell Line | relative viability |
| --- | --- |
| BEN | 0.712 |
| HARA | 0.409 |
| HCC-78 | 0.826 |
| NCI-H322M | 0.533 |
| LCLC-97TM1 | 0.572 |
| NCI-H2009 | 1.04 |
| A-427 | 1.04 |
| NCI-H661 | 0.492 |
| NCI-H1734 | 1 |
| NCI-H460 | 1.05 |
| NCI-H2347 | 0.955 |
| SK-LU-1 | 0.821 |
| NCI-H1395 | 1.17 |
| 201T | 1.05 |
| NCI-H1915 | 0.964 |
| HCC-827 | 0.224 |
| LXF-289 | 0.914 |

Same assay, conditions: first compound 0.1265 µM

| Cell Line | relative viability |
| --- | --- |
| Calu-6 | 1.08 |
| HCC-366 | 0.946 |
| NCI-H1666 | 0.391 |
| NCI-H596 | 0.849 |
| LK-2 | 1.16 |
| NCI-H2087 | 0.958 |
| SK-MES-1 | 0.438 |
| H3255 | 0.291 |
| COR-L23 | 0.957 |
| COR-L 105 | 0.324 |
| IA-LM | 0.935 |
| LOU-NH91 | 0.567 |
| NCI-H2170 | 0.258 |
| NCI-H2405 | 0.706 |
| HOP-62 | 0.907 |
| HCC-44 | 0.794 |
| A549 | 0.477 |
| LU99A | 0.545 |

| Cell Line | relative viability |
| --- | --- |
| BEN | 0.729 |
| HARA | 0.466 |
| HCC-78 | 0.476 |
| NCI-H322M | 0.441 |
| LCLC-97TM1 | 0.301 |
| NCI-H2009 | 1.02 |
| A-427 | 0.934 |
| NCI-H661 | 0.839 |
| NCI-H1734 | 0.814 |
| NCI-H460 | 0.798 |
| NCI-H2347 | 0.874 |
| SK-LU-1 | 0.861 |
| NCI-H1395 | 0.86 |
| 201T | 0.91 |
| NCI-H1915 | 0.999 |
| HCC-827 | 0.214 |
| LXF-289 | 0.856 |

Same assay, conditions: first compound 0.4 µM

| Cell Line | relative viability |
| --- | --- |
| Calu-6 | 0.95 |
| HCC-366 | 1.07 |
| NCI-H1666 | 0.237 |
| NCI-H596 | 0.848 |
| LK-2 | 0.584 |
| NCI-H2087 | 0.88 |
| SK-MES-1 | 0.364 |
| H3255 | 0.226 |
| COR-L23 | 0.994 |
| COR-L 105 | 0.28 |
| IA-LM | 0.647 |
| LOU-NH91 | 0.601 |
| NCI-H2170 | 0.283 |
| NCI-H2405 | 0.76 |
| HOP-62 | 1.05 |
| HCC-44 | 0.647 |
| A549 | 0.348 |
| LU99A | 0.48 |

| Cell Line | relative viability |
| --- | --- |
| BEN | 0.765 |
| HARA | 0.248 |
| HCC-78 | 0.186 |
| NCI-H322M | 0.374 |
| LCLC-97TM1 | 0.172 |
| NCI-H2009 | 0.856 |
| A-427 | 1.09 |
| NCI-H661 | 0.32 |
| NCI-H1734 | 0.817 |
| NCI-H460 | 0.886 |
| NCI-H2347 | 0.842 |
| SK-LU-1 | 0.598 |
| NCI-H1395 | 0.885 |
| 201T | 0.717 |
| NCI-H1915 | 1.01 |
| HCC-827 | 0.17 |
| LXF-289 | 0.831 |

Same assay, conditions: first compound 1.265 µM

| Cell Line | relative viability |
| --- | --- |
| Calu-6 | 0.693 |
| HCC-366 | 0.883 |
| NCI-H1666 | 0.296 |
| NCI-H596 | 0.783 |
| LK-2 | 0.713 |
| NCI-H2087 | 0.945 |
| SK-MES-1 | 0.448 |
| H3255 | 0.155 |
| COR-L23 | 0.423 |
| COR-L 105 | 0.233 |
| IA-LM | 0.601 |
| LOU-NH91 | 0.564 |
| NCI-H2170 | 0.271 |
| NCI-H2405 | 0.744 |
| HOP-62 | 1.04 |
| HCC-44 | 0.688 |
| A549 | 0.103 |
| LU99A | 0.342 |

| Cell Line | relative viability |
| --- | --- |
| BEN | 0.698 |
| HARA | 0.244 |
| HCC-78 | 0.186 |
| NCI-H322M | 0.341 |
| LCLC-97TM1 | 0.163 |
| NCI-H2009 | 0.607 |
| A-427 | 1.08 |
| NCI-H661 | 0.389 |
| NCI-H1734 | 0.98 |
| NCI-H460 | 0.829 |
| NCI-H2347 | 0.959 |
| SK-LU-1 | 0.577 |
| NCI-H1395 | 0.988 |
| 201T | 0.862 |
| NCI-H1915 | 0.994 |
| HCC-827 | 0.175 |
| LXF-289 | 0.802 |

These cell lines were tested with CC1(C)CNc2cc(NC(=O)c3cccnc3NCc3ccncc3)ccc21 [Motesanib] + CS(=O)(=O)N1CCN(Cc2cc3nc(-c4cccc5[nH]ncc45)nc(N4CCOCC4)c3s2)CC1 [Pictilisib] (partner 1 µM) in the same assay as above. Details: first compound 0.01 µM.
In short: as §1

| Cell Line | relative viability |
| --- | --- |
| Calu-6 | 0.878 |
| HCC-366 | 0.145 |
| NCI-H1666 | 0.466 |
| NCI-H596 | 0.391 |
| LK-2 | 0.576 |
| NCI-H2087 | 0.695 |
| SK-MES-1 | 0.392 |
| H3255 | 0.473 |
| COR-L23 | 0.701 |
| COR-L 105 | 0.489 |
| IA-LM | 0.38 |
| LOU-NH91 | 0.466 |
| NCI-H2170 | 0.278 |
| HOP-62 | 0.651 |
| HCC-44 | 0.672 |
| A549 | 0.515 |
| LU99A | 0.348 |
| BEN | 0.517 |
